# ChEMBL document CHEMBL5357073, “Novel Heterocyclic PAD4 Inhibitors for Treating Multiple Diseases” (ACS Med Chem Lett, 2024)
# Molecular target: Protein-arginine deiminase type-4 (Homo sapiens, UniProt Q9UM07)
# Assay: Inhibition of human recombinant PAD4 using TSTGGRQGSHH peptide as substrate preincubated for 30 mins followed by substrate addition and measured after 90 mins by RapidFire mass spectroscopy analysis
# Chain of Protein-arginine deiminase type-4 (Q9UM07 whole entry): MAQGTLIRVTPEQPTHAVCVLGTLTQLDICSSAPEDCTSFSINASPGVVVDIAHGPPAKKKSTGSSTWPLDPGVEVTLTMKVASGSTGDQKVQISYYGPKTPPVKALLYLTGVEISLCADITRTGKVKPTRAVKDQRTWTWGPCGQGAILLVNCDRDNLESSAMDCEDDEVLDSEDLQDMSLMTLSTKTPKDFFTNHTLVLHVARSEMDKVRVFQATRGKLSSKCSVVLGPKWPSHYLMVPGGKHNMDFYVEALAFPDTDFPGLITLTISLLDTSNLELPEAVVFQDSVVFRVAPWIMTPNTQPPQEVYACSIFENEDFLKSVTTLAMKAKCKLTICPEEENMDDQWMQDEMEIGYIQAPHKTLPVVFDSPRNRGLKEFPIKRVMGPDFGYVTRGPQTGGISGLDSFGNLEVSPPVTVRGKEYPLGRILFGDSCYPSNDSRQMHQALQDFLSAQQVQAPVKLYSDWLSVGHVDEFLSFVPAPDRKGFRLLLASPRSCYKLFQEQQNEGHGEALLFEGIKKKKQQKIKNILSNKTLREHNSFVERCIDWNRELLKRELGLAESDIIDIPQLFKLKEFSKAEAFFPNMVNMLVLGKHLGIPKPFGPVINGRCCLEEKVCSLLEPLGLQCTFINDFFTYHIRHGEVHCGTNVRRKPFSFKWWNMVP
row,IC50 [µM],Structure (SMILES)
1,≤ 0.01,Cn1c(-c2cc3cccc(OCC4CNC(=O)O4)c3n2CC2CC2)nc2cc3c(cc21)CCN(CC(N)CF)C3=O (stereo unspecified)
2,≤ 0.01,Cn1c(-c2cc3cccc(OCCn4ccnc4)c3n2CC2CC2)nc2cc3c(cc21)CCN(CC(N)CF)C3=O (stereo unspecified)
3,≤ 0.01,COC(=O)N(C)CCOc1cccc2cc(-c3nc4cc5c(cc4n3C)CCN(CC(N)CF)C5=O)n(CC3CC3)c12 (stereo unspecified)
4,≤ 0.01,Cn1c(-c2cc3cccc(OCCn4cnnn4)c3n2CC2CC2)nc2cc3c(cc21)CCN(CC(N)CF)C3=O (stereo unspecified)
5,≤ 0.01,Cn1c(-c2cc3cccc(OCCc4cnoc4)c3n2CC2CC2)nc2cc3c(cc21)CCN(CC(N)CF)C3=O (stereo unspecified)
6,≤ 0.01,Cn1c(-c2cc3cccc(OCCn4cncn4)c3n2CC2CC2)nc2cc3c(cc21)CCN(CC(N)CF)C3=O (stereo unspecified)
